Assays:
[1] = target: T1, FAPα enzyme (Homo sapiens, UniProt Q12884); assay: FAPα enzyme activity test (Z-Gly-Pro-AMC substrate, fluorescence); assay type: biochemical; settings: for IC50 value against FAPα enzyme, times that of the positive drug FAPI-04: relative to FAPI-04; for inhibition at 0.1 µM: read-out: Inhibition rate 100 nM
T1 sequence (Q12884 1-760): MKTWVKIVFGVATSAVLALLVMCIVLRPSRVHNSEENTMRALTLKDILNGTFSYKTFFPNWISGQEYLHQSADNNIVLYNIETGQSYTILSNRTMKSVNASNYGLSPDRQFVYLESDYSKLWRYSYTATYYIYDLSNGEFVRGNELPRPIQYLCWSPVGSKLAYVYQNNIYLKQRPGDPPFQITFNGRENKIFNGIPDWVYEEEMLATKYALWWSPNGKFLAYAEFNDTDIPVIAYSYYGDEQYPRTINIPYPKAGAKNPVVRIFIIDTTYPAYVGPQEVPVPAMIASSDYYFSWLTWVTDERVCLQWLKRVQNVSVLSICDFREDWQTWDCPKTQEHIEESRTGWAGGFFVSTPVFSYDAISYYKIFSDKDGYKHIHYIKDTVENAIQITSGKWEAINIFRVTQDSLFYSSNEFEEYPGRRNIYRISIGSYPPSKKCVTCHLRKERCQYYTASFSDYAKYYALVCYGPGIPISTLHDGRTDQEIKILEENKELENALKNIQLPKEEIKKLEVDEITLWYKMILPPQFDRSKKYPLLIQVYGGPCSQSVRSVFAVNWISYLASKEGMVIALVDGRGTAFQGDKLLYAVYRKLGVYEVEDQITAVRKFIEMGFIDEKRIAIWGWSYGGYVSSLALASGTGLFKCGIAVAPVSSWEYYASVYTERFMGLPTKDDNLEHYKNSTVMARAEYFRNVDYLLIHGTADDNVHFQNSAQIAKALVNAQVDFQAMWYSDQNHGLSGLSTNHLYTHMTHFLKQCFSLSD
Protocol: The substrate (Z-Gly-Pro-AMC) was diluted with DMSO to prepare a 0.5 mM stock solution. Before each experiment, the 0.5 mM stock solution was diluted with PBS to 50 µM for later use. The FAPα protein was diluted with PBS to 0.5 ng/µl for later use. The test compounds and positive control were diluted with PBS to a concentration of 100 nM or 200 nM for the determination of single-point inhibition rate. […] The test compounds and positive control were subjected to a 5-fold serial dilution with PBS to obtain 8 gradients for later use, with the highest concentration being 10 µM, and the lowest concentration being […]. Test method: 85 µl of the FAPα dilution and 10 µl of the compound dilution were added to a microplate, uniformly mixed and incubated at 37°C for 10 min. Then, 5 µL of 50 µM substrate was added, uniformly mixed and incubated at 37°C for 10 min. The microplate was read on a microplate reader, with an excitation wavelength of 380 nm and an emission wavelength of 465 nm.

[2] = test system: U-87 MG cells; assay: PET imaging test of radiolabelled compounds in U-87 MG tumour-bearing mice; assay type: in vivo, BALB/c nude mice
Protocol: Cell information: U-87 MG cells (Wuhan Pricella Biotechnology Co., Ltd., Cat. No.: CL-0238, Lot No.: YBMIL8BQHO); Culture conditions: U-87 MG cell specific medium (MEM + 10% FBS + 1% P/S); Number of passages: 6-9;
Germline: BALB/c nude mice; age: 4-5 weeks old; Body weight: 15-22 g;
A sufficient quantity of U-87 MG cells was prepared and inoculated into the posterior position of the right forelimb of […] mice in an inoculation volume of 100 µL, containing 50% Matrigel and 4 × 10^6 cells.
The workbench surface was wiped with 75% medical alcohol and covered with a disposable sterile tablecloth. 0.5 mL insulin syringes, alcohol swabs, cotton swabs and a marking pen were prepared in the injection room. The mice were placed in a mouse restrainer, and the tails of the mice were disinfected with alcohol swabs. 0.2-0.5 mL of the formulated test sample was injected into each mouse via the tail vein, with the time of each injection, the activity of the syringe and the activity of the empty syringe recorded. Tumour-bearing mice were anesthetized with isoflurane, then placed in a prone position on small animal PET beds and fixed. PET static image acquisition was performed for 10 min at 0.5 h, 1 h, 2 h and 4 h after administration; a whole-body CT scan was performed before each static scan to obtain distribution images of the labelled compound throughout the body of tumour-bearing mice. PET images at different time points after administration were obtained for each experimental animal. Major organs were selected and delineated, specifically including: parts such as tumour, muscle, bone, lung, brain, liver and kidney. The radioactive accumulation and clearance of the labelled compounds in tumours and non-target tissues of tumour-bearing mice were observed.
Using the same experimental method as in Example 2, the ratio of radioactive accumulation of the labelled compound ^18F-FAPI-42 in tumours to non-target tissues in tumour-bearing mice was observed. Table 4.1 Ratios of 18F-FAPI-42 in tumours to non-target organs (tissues)

Compound: N#C[C@@H]1CC(F)(F)CN1C(=O)CNC(=O)c1ccnc2ccc(NC(=O)[C@H]3CC[C@H](CNC(=O)CN4CCN(CC(=O)O)CCN(CC(=O)O)CC4)CC3)cc12 (relative stereo) [Compound 2, 6-(trans-4-(((2-(4,7-dicarboxymethyl-1,4,7-triazacyclononan-1-yl)acetyl)amino)methyl)cyclohexan-1-yl)carboxamido-4-((S)-2-(2-cyano-4,4-difluoropyrrolidin-1-yl)-2-oxoethyl)carbamoylquinoline]
- IC50 value against FAPα enzyme, times that of the positive drug FAPI-04 [1]: 0.71 times

Compound: N#C[C@@H]1CC(F)(F)CN1C(=O)CNC(=O)c1ccnc2ccc(NC(=O)[C@H]3CC[C@H](CNC(=O)CN4CCN(CC(=O)O)CCN(CC(=O)O)CCN(CC(=O)O)CC4)CC3)cc12 [Compound 1, 6-(trans-4-(((2-(4,7,10-tricarboxymethyl-1,4,7,10-tetraazacyclododecan-1-yl)acetyl)amino)methyl)cyclohexan-1-yl)carboxamido-4-((S)-2-(2-cyano-4,4-difluoropyrrolidin-1-yl)-2-oxoethyl)carbamoylquinoline]
- IC50 [1]: 720 pM
- inhibition at 0.1 µM ([1]; 100 nM compound): 84.1%

Compound: N#C[C@@H]1CC(F)(F)CN1C(=O)CNC(=O)c1ccnc2ccc(NC(=O)C3CCC4(CC3)CN(C(=O)CN3CCN(CC(=O)O)CCN(CC(=O)O)CCN(CC(=O)O)CC3)CCO4)cc12 (stereo partly drawn) [Compound 3, 6-((6r,9r)-N-(2-(4,7,10-tricarboxymethyl-1,4,7,10-tetraazacyclododecan-1-yl)acetyl)-1-oxa-4-azaspiro[5.5]undecan-9-yl)carboxamido-4-((S)-2-(2-cyano-4,4-difluoropyrrolidin-1-yl)-2-oxoethyl)carbamoylquinoline]
- IC50 [1]: 570 pM
- Inhibition rate 100 nM ([1]; 100 nM compound): 84.70%

Compound: N#C[C@@H]1CC(F)(F)CN1C(=O)CNC(=O)c1ccnc2ccc(OCCCN3CCN(C(=O)CN4CCN(CC(=O)O)CCN(CC(=O)O)CC4)CC3)cc12 [FAP-42]
- IC50 value against FAPα enzyme, times that of the positive drug FAPI-04 [1]: 2.27 times

Compound: N#C[C@@H]1CC(F)(F)CN1C(=O)CNC(=O)c1ccnc2ccc(OCCCN3CCN(C(=O)CN4CCN(CC(=O)O)CCN(CC(=O)O)CCN(CC(=O)O)CC4)CC3)cc12 [FAPI-04]
- inhibition at 0.1 µM ([1]; 100 nM compound): 92.3%

Compound: N#C[C@@H]1CC(F)(F)CN1C(=O)CNC(=O)c1ccnc2ccc(OCCCN3CCN(C(=O)CN4CCN5CCN(CC4)CC(=O)[O][Al]([18F])[O]C(=O)C5)CC3)cc12 [^18F-FAPI-42]
- Ratio Tumour/gallbladder ([2]; 0.5 h): 1.21
- Ratio Tumour/intestine ([2]; 0.5 h): 3.14
- Ratio Tumour/gallbladder ([2]; 1.5 h): 1.42
- Ratio Tumour/intestine ([2]; 1.5 h): 1.28
- Ratio Tumour/gallbladder ([2]; 3.0 h): 3.15
- Ratio Tumour/intestine ([2]; 3.0 h): 1.19

Compound: N#C[C@@H]1CC(F)(F)CN1C(=O)CNC(=O)c1ccnc2ccc(OCCCN3CCN(C(=O)CN4CCN(CC(=O)[O-])CCN(CC(=O)[O-])CCN(CC(=O)[O-])CC4)CC3)cc12.[68Ga+3] [^68Ga-FAPI-04]
- Ratio Tumour/brain ([2]; 0.5 h): 6.36
- Ratio Tumour/gallbladder ([2]; 0.5 h): 4.89
- Ratio Tumour/kidney ([2]; 0.5 h): 3.35
- Ratio Tumour/liver ([2]; 0.5 h): 4.79
- Ratio Tumour/lung ([2]; 0.5 h): 4.73
- Ratio Tumour/muscle ([2]; 0.5 h): 15.38
- Ratio Tumour/shoulder joint ([2]; 0.5 h): 2.62
- Uptake Brain ([2]; 0.5 h after administration): 1.16 ± 0.28 % ID/g
- Uptake Gallbladder ([2]; 0.5 h after administration): 1.51 ± 0.18 % ID/g
- Uptake Kidney ([2]; 0.5 h after administration): 2.20 ± 0.10 % ID/g
- Uptake Liver ([2]; 0.5 h after administration): 1.54 ± 0.23 % ID/g
- Uptake Lung ([2]; 0.5 h after administration): 1.56 ± 0.45 % ID/g
- Uptake Muscle ([2]; 0.5 h after administration): 0.48 ± 0.39 % ID/g
- Uptake Shoulder joint ([2]; 0.5 h after administration): 2.82 ± 0.57 % ID/g
- Uptake Tumour (max) ([2]; 0.5 h after administration): 13.17 ± 3.28 % ID/g
- Uptake Tumour (mean) ([2]; 0.5 h after administration): 7.38 ± 1.41 % ID/g
- Ratio Tumour/brain ([2]; 1.0 h): 9.13
- Ratio Tumour/gallbladder ([2]; 1.0 h): 5.46
- Ratio Tumour/kidney ([2]; 1.0 h): 3.42
- Ratio Tumour/liver ([2]; 1.0 h): 5.76
- Ratio Tumour/lung ([2]; 1.0 h): 5.81
- Ratio Tumour/muscle ([2]; 1.0 h): 13.89
- Ratio Tumour/shoulder joint ([2]; 1.0 h): 2.72
- Uptake Brain ([2]; 1 h after administration): 0.70 ± 0.09 % ID/g
- Uptake Gallbladder ([2]; 1 h after administration): 1.17 ± 0.36 % ID/g
- Uptake Kidney ([2]; 1 h after administration): 1.87 ± 0.20 % ID/g
- Uptake Liver ([2]; 1 h after administration): 1.11 ± 0.31 % ID/g
- Uptake Lung ([2]; 1 h after administration): 1.10 ± 0.12 % ID/g
- Uptake Muscle ([2]; 1 h after administration): 0.46 ± 0.10 % ID/g
- Uptake Shoulder joint ([2]; 1 h after administration): 2.35 ± 0.44 % ID/g
- Uptake Tumour (max) ([2]; 1 h after administration): 10.98 ± 2.02 % ID/g
- Uptake Tumour (mean) ([2]; 1 h after administration): 6.39 ± 0.92 % ID/g
- Ratio Tumour/brain ([2]; 2.0 h): 8.95
- Ratio Tumour/gallbladder ([2]; 2.0 h): 5.34
- Ratio Tumour/kidney ([2]; 2.0 h): 3.42
- Ratio Tumour/liver ([2]; 2.0 h): 5.71
- Ratio Tumour/lung ([2]; 2.0 h): 5.71
- Ratio Tumour/muscle ([2]; 2.0 h): 10.21
- Ratio Tumour/shoulder joint ([2]; 2.0 h): 2.77
- Uptake Brain ([2]; 2 h after administration): 0.65 ± 0.21 % ID/g
- Uptake Gallbladder ([2]; 2 h after administration): 1.09 ± 0.36 % ID/g
- Uptake Kidney ([2]; 2 h after administration): 1.70 ± 0.17 % ID/g
- Uptake Liver ([2]; 2 h after administration): 1.02 ± 0.23 % ID/g
- Uptake Lung ([2]; 2 h after administration): 1.02 ± 0.21 % ID/g
- Uptake Muscle ([2]; 2 h after administration): 0.57 ± 0.27 % ID/g
- Uptake Shoulder joint ([2]; 2 h after administration): 2.10 ± 0.36 % ID/g
- Uptake Tumour (max) ([2]; 2 h after administration): 10.38 ± 2.02 % ID/g
- Uptake Tumour (mean) ([2]; 2 h after administration): 5.82 ± 1.01 % ID/g
- Ratio Tumour/brain ([2]; 4.0 h): 8.20
- Ratio Tumour/gallbladder ([2]; 4.0 h): 4.75
- Ratio Tumour/kidney ([2]; 4.0 h): 3.34
- Ratio Tumour/liver ([2]; 4.0 h): 4.47
- Ratio Tumour/lung ([2]; 4.0 h): 5.43
- Ratio Tumour/muscle ([2]; 4.0 h): 10.74
- Ratio Tumour/shoulder joint ([2]; 4.0 h): 2.59
- Uptake Brain ([2]; 4 h after administration): 0.55 ± 0.17 % ID/g
- Uptake Gallbladder ([2]; 4 h after administration): 0.95 ± 0.46 % ID/g
- Uptake Kidney ([2]; 4 h after administration): 1.35 ± 0.23 % ID/g
- Uptake Liver ([2]; 4 h after administration): 1.01 ± 0.29 % ID/g
- Uptake Lung ([2]; 4 h after administration): 0.83 ± 0.20 % ID/g
- Uptake Muscle ([2]; 4 h after administration): 0.42 ± 0.10 % ID/g
- Uptake Shoulder joint ([2]; 4 h after administration): 1.74 ± 0.42 % ID/g
- Uptake Tumour (max) ([2]; 4 h after administration): 12.40 ± 0.85 % ID/g
- Uptake Tumour (mean) ([2]; 4 h after administration): 4.51 ± 0.28 % ID/g

— patent publication EP4711362A1, “LIGAND TARGETING FIBROBLAST ACTIVATION PROTEIN” (Jiangsu Hengrui Pharmaceuticals Co., Ltd., priority 2023, dated 2024)
